Reference: patent publication US7265118B2, “Regulation of substrate activity” (Point Therapeutics, Inc., priority 1998, dated 2007)

Assay: Conformational equilibrium of cyclic and open chain forms in aqueous solution
Format: physicochemical
Settings: at equilibrium at pH 7.0
Description: The open, active, inhibitory chain species is favored at low pH while the cyclized structure is favored at neutral pH. The reaction is fully reversible: the open chain becomes predominant at low pH. The open chain to cyclic species reaction involves a trans to cis isomerization of the proline and the formation of a new N—B bond. […] Cyclization liberates one equivalent of H+ thereby explaining the requirement for base in the cyclization reaction and acid in the opening reaction. […] G. Gutheil and W. W. Bachovchin, Separation of L-Pro-DL-boroPro into Its Component Diastereomers and Kinetic Analysis of Their Inhibition of Dipeptidyl Peptidase IV. A New Method for the Analysis of Slow, Tight-Binding Inhibition, Biochemistry 32, 8723-8731 (1993)).

| Structure (SMILES) | fraction existing as the open chain, inhibitory species |
| --- | --- |
| O=C(C1CCCN1)N1CCCC1B(O)O (centres unmarked) [Pro-boroPro] | less than 1% |
| CC(C)C(N)C(=O)N1CCCC1B(O)O (centres unmarked) [Val-boroPro] | less than 0.1% |
